How the values were obtained:
[1] = Antagonist activity against human P2X4R stably transfected in human 1321N1 cells assessed as ATP EC50 at 0.1 uM incubated for 30 mins by Fura-2 AM staining based calcium influx assay
[2] = Antagonist activity against human P2X4R stably transfected in human 1321N1 cells assessed as ATP EC50 at 0.2 uM incubated for 30 mins by Fura-2 AM staining based calcium influx assay
[3] = Antagonist activity against human P2X4R stably transfected in human 1321N1 cells assessed as ATP EC50 at 0.05 uM incubated for 30 mins by Fura-2 AM staining based calcium influx assay
[4] = Antagonist activity against human P2X7R stably transfected in human 1321N1 cells assessed as BzATP EC50 at 0.1 uM incubated for 30 mins by Fura-2 AM staining based calcium influx assay
[5] = Antagonist activity against human P2X7R stably transfected in human 1321N1 cells assessed as BzATP EC50 at 0.2 uM incubated for 30 mins by Fura-2 AM staining based calcium influx assay
[6] = Antagonist activity against human P2X7R stably transfected in human 1321N1 cells assessed as BzATP EC50 at 0.05 uM incubated for 30 mins by Fura-2 AM staining based calcium influx assay

EC50 [1]	EC50 [2]	EC50 [3]	EC50 [4]	EC50 [5]	EC50 [6]	SMILES
10.1 µM	10.8 µM	10.8 µM	–	–	–	O=C(NC(=S)Nc1c(Br)ccc(C(F)(F)F)c1Br)c1ccc2c(c1)OCO2
–	–	–	9.44 µM	9.14 µM	8.31 µM	O=C(NC(=S)Nc1cccc2cccnc12)c1ccc2c(c1)OCO2
